Reference: patent US20150212068A1, “Cholyl-L-Lysyl-Fluorescein Assay” (Novassay SA, priority 2012, published 2015)
Entries after “also recorded” stand apart in the source; their conditions may differ.

Test system: serum/plasma proteins
Experiment: Effect of ANS on CLF recovery in the labelled-antibody format
Assay type: in vitro ADME
Details: human serum/plasma spiked with CLF, competitive immunoassay
Source text: This was successful in shifting the mean recovery to ˜100%. However, an unacceptably wide sample-to-sample variation was still observed (˜70-180%), therefore it was concluded that a blocker approach would be required, in which a chemical agent is used to displace the analyte from the binding proteins, so that it can be recovered effectively in the assay. […] ANS was therefore evaluated in more detail in this format.
The following study was executed to assess the recovery of CLF following spiking into human serum in assays, in the presence and absence of ANS.
25 μl of standard (in buffer) was added to streptavidin coated wells, followed by 100 ul of 20 ng/ml biotin-fluorescein (one formulation containing 0.2% ANS, the other without) and 100 μl of anti-fluorescein HRP (100 ng/ml). After 30 minutes incubation (RT/static) the wells were washed and 100 μl of SureBlue Reserve TMB substrate added. After a further 10 minutes incubation, 100 μl of 1M HCl was added and the colour intensity measured at 450 nm.
3 plasma samples (Lithium heparin) were spiked with CLF at […]; these concentrations (the expected values) are noted in the relevant sample IDs.

O=S(=O)(O)c1cccc2cccc(Nc3ccccc3)c12 [ANS, 8-anilino-1-naphthalene sulfonic acid]
displacement of CLF from serum/plasma proteins by blocker: effective in displacing CLF bound to serum/plasma proteins; also recorded: able to displace CLF from serum proteins
